According to PMC12655446, “Colon-Specific Delivery of Probenecid Enhances Therapeutic Activity of the Uricosuric Agent Against Rat Colitis” (Pharmaceutics, 2025):
“Also recorded” adds a separate entry of the source.

Columns and labels:
[1] = test system: dextran sulfate sodium-induced colitis; parameters: method as in PMID 40602551; settings: mice, oral 100 mg/kg; cited from earlier work
[2] = Distribution coefficient (log D6.8), isotonic phosphate buffer (pH 6.8)/n-octanol; type: physicochemical
Protocol: Distribution coefficients (log D6.8) of PBN, PBN-GA, and PBN-AA were measured using an isotonic phosphate buffer (pH 6.8)/n-octanol system, as described previously.

Px-1 = test system: Px-1; parameters: method as in PMID 18596212; settings: cited from earlier work
DNBS-induced rat colitis = experiment: Anticolitis effects in DNBS-induced rat colitis; type: in vivo
Protocol: Experimental colitis was induced in rats as previously described. Briefly, male Sprague–Dawley rats underwent to a 24 h fasting period with free access to water. Anesthesia was induced using 3% isoflurane and maintained at 2.5% in 1 L/min oxygen using a Small Animal O2 Single Flow Anesthesia System (LMS, Pyeongtaek, Republic of Korea). Once the animals no longer reacted to external tactile stimulation, a rubber cannula (2 mm outer diameter) was carefully inserted rectally, positioning the tip approximately 8 cm from the anus to target the splenic flexure. A solution of DNBS (48.0 mg) in 0.4 mL of 50% aqueous ethanol was then instilled into the colon via cannula to induce colitis.
Three days after the induction of colonic inflammation, the respective drugs were orally administered to the rats once daily for 6 consecutive days. The experimental scheme and treatment group assignments are shown in Supplementary Material S1. Colonic damage scores (CDS) were determined based on previously established scoring criteria. The scoring system is shown in Supplementary Material S2. Three independent observers blinded to the treatment groups conducted the CDS assessments. Myeloperoxidase (MPO) activity in the distal colon (4 cm) was determined as previously. One unit of MPO activity was defined as 1.0 μmol min^−1 of peroxide degradation at 25 °C.
Western blot analysis was performed on lysates derived from distal colon tissues following a previously established protocol. The detailed procedure is shown in Supplementary Material S3. Western blot images were quantified using Image Lab software (version 5.2 build 14; Bio-Rad, Hercules, CA, USA). Results are presented as the mean of the quantified values for each Western blot in the figures (n = 5).
The levels of inflammatory cytokine-induced neutrophil chemoattractant-3 (CINC-3) in the inflamed distal colon were determined using a CINC-3 enzyme-linked immunosorbent assay (ELISA) kit (R&D Systems, Minneapolis, MN, USA) as previously described.

[3] = Incubation in small intestinal contents of rats; type: in vitro ADME, rat; settings: 10 h
Protocol: Male Sprague-Dawley rats (250–260 g) were euthanized with CO2 prior to making a midline abdominal incision. The small intestinal contents were collected and suspended in isotonic phosphate buffer (pH 6.8) to prepare a 20% (w/v) suspension. PBN-GA (2 mM) was dissolved in 3 mL of isotonic phosphate buffer (pH 6.8), were mixed with 3 mL of the small intestinal suspension and incubated at 37 °C. A solution of PBN-AA was created with the same method. At designated time points, 0.5 mL of the reaction mixture was collected and centrifuged at 10,000× g at 4 °C for 10 min, and 0.1 mL of the supernatant was mixed with 0.9 mL of methanol. After vortexing and centrifugation under the same conditions, the final supernatant was filtered through a 0.45 μm membrane, and 20 μL of the filtrate was analyzed for PBN concentration by HPLC.

[4] = Chemical stability in HCl-NaCl buffer (pH 1.2) and isotonic phosphate buffer (pH 6.8); type: physicochemical
Protocol: The chemical stabilities of PBN-GA and PBN-AA were tested in HCl-NaCl buffer (pH 1.2) and isotonic phosphate buffer (pH 6.8). Changes in the concentrations of PBN-GA and PBN-AA were monitored by HPLC.

[5] = PBN concentration in the cecum after oral gavage; type: in vivo; settings: rat
Protocol: For cecal distribution studies, rats were orally administered PBN (30.0 mg/kg) or PBN-GA (43.6 mg/kg, equivalent to 30.0 mg/kg of PBN) in 1.0 mL PBS. At 2, 4, and 8 h post-dosing, the cecal contents were harvested and suspended in isotonic phosphate buffer (pH 6.8) to prepare 10% (w/v) homogenates. Quantitative analysis of PBN in the cecal suspensions was performed using HPLC, following the procedure described in Section 2.7.

Caco-2 cell monolayer = experiment: Cell permeability assay across Caco-2 cell monolayer; type: in vitro ADME; settings: 500 μM apical, up to 24 h, apical to basolateral
Protocol: The cell permeabilities of PBN, PBN-GA, and PBN-AA were evaluated using a Caco-2 cell monolayer model. Caco-2 cells were seeded at a density of 4 × 10^5 cells per insert in Transwell 6-well plates with a pore size of 0.4 μm (SPL Life Sciences, Pocheon, Gyeonggi-do, Republic of Korea). The cells were cultured in Dulbecco’s modified eagle medium (DMEM) supplemented with 10% Fetal bovine serum (FBS) and 1% penicillin/streptomycin until the transepithelial electrical resistance (TEER) measured using an EMD Millipore system (Billerica, MA, USA) reached 2000 Ω·cm^2, indicating an intact monolayer.
For the transport study, the apical (donor) compartment was filled with 2 mL of DMEM without phenol red containing the test compounds (500 μM), and 3 mL of DMEM without phenol red was placed in the basolateral (acceptor) compartment. Samples were collected from the basolateral side at designated time intervals up to 24 h to determine the concentration of the permeated compounds using HPLC. Each experiment was performed in triplicate, and monolayer integrity was confirmed by maintaining TEER values above 2000 Ω·cm^2 before and after the assay.

[6] = oral once daily for 6 days, PBN-GA 21.8 and 43.6 mg/kg

Row | logD [2] | change in concentration of the conjugate (stability) [3] | change in concentration of the conjugate (stability) ([4]; buffer pH 1.2, 10 h) | change in concentration of the conjugate (stability) ([4]; buffer pH 6.8, 10 h) | transport via the Caco-2 cell monolayer compared with PBN (Caco-2 cell monolayer) | Compound | further results
1 | – | – | – | – | – | N[C@@H](CCC(=O)O)C(=O)O [GA, glutamic acid] | effect on dextran sulfate sodium-induced colitis [1]: attenuates
2 | 0.3 | – | – | – | – | CCCN(CCC)S(=O)(=O)c1ccc(C(=O)O)cc1 [PBN, Probenecid] | concentration required for significant inhibition of Px-1 (Px-1): 1 mM
3 | -1.22 | no significant change | no significant change | no significant change | lower transport | CCCN(CCC)S(=O)(=O)c1ccc(C(=O)N[C@@H](CCC(=O)O)C(=O)O)cc1 [PBN-GA, glutamic acid-conjugated PBN] | CINC-3 level in inflamed colon (ELISA) (DNBS-induced rat colitis; [6]): dose-dependently diminished; COX-2 level in inflamed colon (Western blot) (DNBS-induced rat colitis; [6]): dose-dependently diminished; iNOS level in inflamed colon (Western blot) (DNBS-induced rat colitis; [6]): dose-dependently diminished; mucosal recovery (H&E staining of inflamed colon) (DNBS-induced rat colitis; [6]): more effective than PBN and SSZ; myeloperoxidase (MPO) activity in inflamed distal colon (DNBS-induced rat colitis; [6]): dose-dependently diminished; colonic tissue damage (colonic damage score, CDS) (DNBS-induced rat colitis; oral once daily for 6 days, PBN-GA 21.8 and 43.6 mg/kg, PBN 30.0 mg/kg, SSZ 50.0 mg/kg): greater with PBN-GA than with PBN; also recorded: more effective than SSZ; suppression of the inflammatory response compared with PBN and SSZ (DNBS-induced rat colitis; regardless of the dose of PBN-GA): more effective in suppressing the inflammatory response than PBN and SSZ; amount of PBN detected in the cecum compared with oral PBN ([5]; oral 43.6 mg/kg (equivalent to 30.0 mg/kg PBN), 2, 4 and 8 h): much greater amount of PBN; amount of PBN in the large intestine relative to oral PBN ([5]; oral, all time points): ten-fold
4 | -1.04 | no significant change | no significant change | no significant change | lower transport | CCCN(CCC)S(=O)(=O)c1ccc(C(=O)N[C@@H](CC(=O)O)C(=O)O)cc1 [PBN-AA, aspartic acid-conjugated PBN] | –
